# Where two headings read alike, the source gives them in different places.
# What was measured:
# [1] = tested on: MRSA; experiment: antibacterial activity (MIC) by agar plate dilution method, MRSA strains; format: cell-based, methicillin-resistant Staphylococcus aureus; conditions: Staphylococcus aureus, 20 h; for MIC: range over strains
# Description: (§1) The screening of the present invention may be carried out according to the agar plate dilution method designated by the Japan Society of Chemotherapy (Chemotherapy 29(1), 76-79 (1981)). Mueller-Hinton agar base semi-synthetic medium may be used for a plate culture medium for a sensitivity test together with an inoculating bacteria solution which may be prepared by culturing bacteria to be tested at 37° C. for 20 hours diluted with 8.5% by isotonic sodium chloride solution to 10^6 CFU/ml. Diluted β-lactam solutions are prepared by two times serial dilution. 1 ml of the diluted β-lactam solution and 1 ml of a predetermined concentration of a sample to be tested are added to 8 ml of the plate culture medium for a sensitivity test. To the resultant plate culture medium for sensitivity test, the bacteria are inoculated using a microplanter (SAKUMASEISAKUSYO Co.), cultured for 20 hours at 37° C. followed by assessing for a minimum inhibition concentration (MIC).
# (§2) (A) Antibacterial activities of ether extract from Scutellaria barbata, SB-1 (isolated from Scutellaria barbata), apigenin (authentic sample) and luteolin (authentic sample) were shown in Table 1.
# (§3) Flavones were dissolved in methanol and the others were dissolved in 0.1 N NaOH. A method for determination of antibacterial activity is, as described above, an agar plate dilution method designated by the Japan Society of Chemotherapy (Chemotherapy 29(1), 76-79 (1981)) to determine MIC value. MIC80 is a concentration at which a strain is prohibited to proliferate by 80% and MIC50 is a concentration at which a strain is prohibited to proliferate by 50%.
# [2] = tested on: MSSA; experiment: antibacterial activity (MIC) by agar plate dilution method, MSSA strains; format: cell-based, Methicillin-sensitive Staphylooccus aureus; conditions: Staphylococcus aureus, 20 h; for MIC: range over strains
# Description: as §1, §2, §3
# [3] = tested on: MRSA; experiment: antibacterial activity of antibiotics alone and in the presence of apigenin (4 μg/ml), MRSA; format: cell-based, methicillin-resistant Staphylococcus aureus; conditions: for MIC / MIC50: MRSA
# Description: as §1
# (D) Then use of 4 μg/ml of apigenin and other antibiotics at the same time was studied. The antibiotics are penicillin , ampicillin, cephalothin, cefoxitin, cefuroxime, cefotaxime, vancomycin, streptomycin, chloramphenicol, kanamycin, erythromycin, nalixic acid and tetracycline.
# [4] = tested on: MRSA No. 5; experiment: effect of flavone on antibacterial activity of antibiotics against MRSA No. 5 in bouillon (broth microdilution); format: cell-based, methicillin-resistant Staphylococcus aureus; conditions: for MIC: Staphylococcus aureus, MRSA, 20 h, read-out: MIC; for inhibitory effect on resistance of MRSA No.5 (in words): in the presence of flavone 0.5 mM
# Description: Alternatively, the screening of the present invention may be carried out according to the broth microdilution method designated by the Japan Society of Chemotherapy (Chemotherapy 38(1), 102-105 (1990)). Muellar-Hinton broth is used as a culture medium for the sensitivity test, and 50 mg/ml of calcium(Ca) ion, 25 mg/ml of magnesium(Mg) ion, and 2% sodium chloride (NaCl) are added thereto. An inoculating bacteria solution may be prepared by culturing bacteria to be tested in Mueller-Hinton broth at 37° C. for 20 hours and diluting with Mueller-Hinton broth to 10^5 CFU/ml final concentration of inoculating bacteria. Diluted β-lactam solution is prepared by two times serial dilution series. 10 μl of the diluted β-lactam solution and 10 μl of a predetermined concentration of a sample of bacteria to be tested are added to mix with 80 μl of the culture medium for the sensitivity test. To the resultant plate culture medium for sensitivity test, the inoculating bacteria are added and culturing is carried out for 20 hours at 37° C. and then assessment for a minimum inhibition concentration (MIC) is carried out. A minimum inhibition concentration means the minimum concentration of β-lactam at which growth of bacteria is not recognized by the naked eye.
# (G) Antibacterial activity of 6 β-lactams, that is, cephalothin, cefuroxime, cefotaxime, cefoxitin, streptomycin and vancomycin, against MRSA in the presence of 0.5 mM flavone was studied in bouillon.
# Muellar-Hinton broth was used as a culture medium for the sensitivity test, and 50 mg/ml of calcium (Ca) ion, 25 mg/ml of maqnesium (Mg) ion, 2% sodium chloride (NaCl) were added thereto. An inoculating bacteria solution was prepared by culturing bacteria to be tested with Mueller-Hinton broth at 37° C. for 20 hours and diluting with Mueller-Hinton broth to 10^5 CFU/ml final concentration of inoculating bacteria. Diluted β-lactam solutions were prepared in two times serial dilutions starting from 10 mM. Ten microliters of the diluted β-lactam solution and 10 μl of 5 mM of flavone were mixed with 80 μl of the culture medium for the sensitivity test in a microplate having U-shaped wells and samples of bacteria to be tested were added thereto. The mixture was cultured 20 hours at 37° C. and then assessed for minimum inhibition concentration (MIC). Minimum inhibition concentration means minimum concentration of a β-lactum at which growth of bacteria is inhibited to the extent that bacteria is not recognized by the naked eye.
# [5] = MRSA (20 strains), read-out: MIC50
# [6] = MRSA, MRSA (20 strains), read-out: MIC
# [7] = MSSA (7 strains), read-out: MIC50
# [8] = MSSA, MSSA (7 strains), read-out: MIC
# [9] = Staphylococcus aureus, 20 h, Antibiotics alone, read-out: MIC50
# [10] = Staphylococcus aureus, 20 h, antibiotic with Apigenin (4 μg/ml), read-out: MIC
# [11] = Staphylococcus aureus, 20 h, antibiotic with Apigenin (4 μg/ml), read-out: MIC50
# [12] = Concentration of flavone 0.5 mM
# [13] = Staphylococcus aureus, 20 h, Antibiotics alone
# [14] = Staphylococcus aureus, 20 h, antibiotic with Apigenin (4 μg/ml)
SMILES,"MIC50 [1, 5]","MIC [1, 6]","MIC50 [2, 7]","MIC [2, 8]",other results
"Oc1cc(O)c2c(c1)O[C@H](c1ccc(O)c(O)c1)[C@@H](O)C2 [(+)-Catechin, (+)-catechin]",> 250 µg/mL,> 250 µg/mL,> 250 µg/mL,> 250 µg/mL,
"COc1ccc(-c2cc(=O)c3c(O)cc(O)cc3o2)cc1 [Acacetin, acacetin]",> 250 µg/mL,> 250 µg/mL,> 250 µg/mL,> 250 µg/mL,
"CC1(C)S[C@@H]2[C@H](NC(=O)[C@H](N)c3ccccc3)C(=O)N2[C@H]1C(=O)O [Ampicillin, ampicillin]",,,,,"MIC ([3]; Staphylococcus aureus, 20 h, Antibiotics alone, read-out: MIC): 2 to 125 µg/mL; MIC50 [3, 9]: 31.3 µg/mL; MIC [3, 10]: 2 to 62.5 µg/mL; MIC50 [3, 11]: 31.3 µg/mL"
"O=c1cc(-c2ccccc2)oc2cc(O)c(O)c(O)c12 [Baicalein, baicalein]",> 250 µg/mL,> 250 µg/mL,> 250 µg/mL,> 250 µg/mL,
"CO/N=C(\C(=O)N[C@@H]1C(=O)N2C(C(=O)O)=C(COC(C)=O)CS[C@H]12)c1csc(N)n1 [Cefotaxime, cefotaxime]",,,,,"MIC50 [3, 9]: > 250 µg/mL; MIC50 [3, 11]: > 250 µg/mL; MIC ([4]; Concentration of flavone 0 mM): 1000 µM; MIC [4, 12]: 7.8 µM; inhibitory effect on resistance of MRSA No.5 (in words) [4]: showed inhibitory effect on resistance of MRSA No.5"
"CO[C@@]1(NC(=O)Cc2cccs2)C(=O)N2C(C(=O)O)=C(COC(N)=O)CS[C@@H]21 [Cefoxitin, cefoxitin]",,,,,"MIC50 [3, 9]: 250 µg/mL; MIC [3, 10]: 2 to 125 µg/mL; MIC50 [3, 11]: 31.3 µg/mL; inhibition of β-lactam resistant MRSA / improvement of antibacterial effect with apigenin (in words) ([3]; apigenin 4 μg/ml or less than its MIC): inhibited β-lactam resistant MRSA; MIC ([4]; Concentration of flavone 0 mM): 1000 µM; MIC [4, 12]: < 0.98 µM; inhibitory effect on resistance of MRSA No.5 (in words) [4]: showed the inhibitory effect remarkably"
"O=C(N[C@H](CO)[C@H](O)c1ccc([N+](=O)[O-])cc1)C(Cl)Cl [Chloramphenicol, chloramphenicol]",,,,,"MIC [3, 13]: 2 to 62.5 µg/mL; MIC50 [3, 13]: 7.8 µg/mL; MIC [3, 14]: 3.9 to 31.3 µg/mL; MIC50 [3, 14]: 7.8 µg/mL"
"O=c1cc(-c2ccccc2)oc2cc(O)cc(O)c12 [Chrysin, chrysin]",> 250 µg/mL,> 250 µg/mL,> 250 µg/mL,> 250 µg/mL,
"O=c1c(-c2ccc(O)cc2)coc2cc(O)ccc12 [Daidzein, daidzein]",> 250 µg/mL,> 250 µg/mL,> 250 µg/mL,> 250 µg/mL,
"CC[C@H]1OC(=O)[C@H](C)[C@@H](O[C@H]2C[C@@](C)(OC)[C@@H](O)[C@H](C)O2)[C@H](C)[C@@H](O[C@@H]2O[C@H](C)C[C@H](N(C)C)[C@H]2O)[C@](C)(O)C[C@@H](C)C(=O)[C@H](C)[C@@H](O)[C@]1(C)O [Erythromycin, erythromycin]",,,,,"MIC50 [3, 13]: > 250 µg/mL; MIC50 [3, 14]: > 250 µg/mL"
"COc1ccc(-c2coc3cc(O)ccc3c2=O)cc1 [Formononetin, formononetin]",> 250 µg/mL,> 250 µg/mL,> 250 µg/mL,> 250 µg/mL,
"O=c1c(-c2ccc(O)cc2)coc2cc(O)cc(O)c12 [Genistein, genistein]",> 250 µg/mL,> 250 µg/mL,> 250 µg/mL,> 250 µg/mL,
"COc1ccc([C@@H]2CC(=O)c3c(O)cc(O)cc3O2)cc1O [Hesperetin, hesperetin]",> 250 µg/mL,> 250 µg/mL,> 250 µg/mL,> 250 µg/mL,
"NC[C@H]1O[C@H](O[C@H]2[C@H](O)[C@@H](O[C@H]3O[C@H](CO)[C@@H](O)[C@H](N)[C@H]3O)[C@H](N)C[C@@H]2N)[C@H](O)[C@@H](O)[C@@H]1O [Kanamycin, kanamycin]",,,,,"MIC50 [3, 13]: > 250 µg/mL; MIC50 [3, 14]: 250 µg/mL"
"O=C1C[C@@H](c2ccc(O)cc2)Oc2cc(O)ccc21 [Liquiritigenin, liquiritigenin]",,,,,MIC50 ([1]; MRSA): > 250 µg/mL; MIC50 ([2]; MSSA): > 250 µg/mL
"O=c1c(O)c(-c2cc(O)c(O)c(O)c2)oc2cc(O)cc(O)c12 [Myricetin, myricetin]",> 250 µg/mL,,> 250 µg/mL,> 250 µg/mL,
CCn1cc(C(=O)O)c(=O)c2ccc(C)nc21 [Nalidixic acid],,,,,"MIC50 [3, 13]: > 250 µg/mL; MIC50 [3, 14]: > 250 µg/mL"
"O=C1C[C@@H](c2ccc(O)cc2)Oc2cc(O)cc(O)c21 [Naringenin, naringenin]",> 250 µg/mL,> 250 µg/mL,> 250 µg/mL,> 250 µg/mL,
"CC1(C)S[C@@H]2[C@H](NC(=O)Cc3ccccc3)C(=O)N2[C@H]1C(=O)O [Penicillin G, penicillin G]",,,,,"MIC [3, 13]: 0.49 to 125 µg/mL; MIC50 [3, 13]: 31.3 µg/mL; MIC [3, 14]: 0.49 to 62.5 µg/mL; MIC50 [3, 14]: 15.6 µg/mL"
"O=c1c(O)c(-c2ccc(O)c(O)c2)oc2cc(O)c(O)c(O)c12 [Quercetagetin, quercetagetin]",,,,,"MIC50 ([1]; MRSA): > 250 µg/mL; MIC ([1]; MRSA, MRSA (20 strains)): > 250 µg/mL; MIC50 ([2]; MSSA): > 250 µg/mL; MIC ([2]; MSSA, MSSA (7 strains)): > 250 µg/mL"
"COc1cc(O)c2c(=O)c(O)c(-c3ccc(O)c(O)c3)oc2c1 [Rhamnetin, rhamnetin]",> 250 µg/mL,> 250 µg/mL,> 250 µg/mL,> 250 µg/mL,
"CN(C)C1C(=O)C(C(N)=O)=C(O)C2(O)C(=O)C3=C(O)c4c(O)cccc4C(C)(O)C3CC12 (centres unmarked) [Tetracycline, tetracycline]",,,,,"MIC ([3]; Antibiotics alone): 0.24 to 250 µg/mL; MIC50 [3, 13]: 0.98 µg/mL; MIC [3, 14]: 0.49 to 250 µg/mL; MIC50 [3, 14]: 0.98 µg/mL"
